Test: Electrophysiology Assay: Patch clamp electrophysiology was used to assess the efficacy and selectivity of sodium channel blockers in dorsal root ganglion neurons. Rat neurons were isolated from the dorsal root ganglions and maintained in culture for 2 to 10 days in the presence of NGF (50 ng/ml) (culture media consisted of NeurobasalA supplemented with B27, glutamine and antibiotics). Small diameter neurons (nociceptors, 8-12 μm in diameter) were visually identified and probed with fine tip glass electrodes connected to an amplifier (Axon Instruments). The “voltage clamp” mode was used to assess the compound's IC50 holding the cells at −60 mV. In addition, the “current clamp” mode was employed to test the efficacy of the compounds in blocking action potential generation in response to current injections. The results of these experiments contributed to the definition of the efficacy profile of the compounds.
Work on `O=C(Nc1cc[nH]c(=O)c1)c1ccc(C(F)(F)F)cc1O[C@@H]1CC2CCC1C2` (stereo not given in full) yielded an IC50 of 765 nM.
For `O=C(Nc1ccn(CCO)c(=O)c1)c1ccc(C(F)(F)F)cc1Oc1ccc(F)cc1`, the IC50 was 2800 nM.
Compound `COc1cc(C)ccc1Oc1ccc(OC(F)(F)F)cc1C(=O)Nc1cc[nH]c(=O)c1` has an IC50 of 68 nM.
In the case of `COc1ccc(Oc2ccc(F)cc2C(=O)Nc2cc[nH]c(=O)c2)c(C)c1`, the IC50 is reported as 330 nM.
For `COc1cc(Oc2cc(C(F)(F)F)ccc2C(=O)Nc2cc[nH]c(=O)c2)ccc1F`, the IC50 was 26 nM.

From ChEMBL document CHEMBL5727881, “Pyridone amides as modulators of sodium channels” (2020)
